Source: US20240082342A1, “PEPTIDE THERAPEUTICS FOR INCREASING LUNG CELL VIABILITY” (BOARD OF REGENTS, THE UNIVERSITY OF TEXAS SYSTEM, priority 2018, published 2024)
Entries after “also recorded” stand apart in the source; their conditions may differ.

Legend:
A2Cs of uPA^−/− mice = test: Tobacco smoke or repeated bleomycin exposure of uPA-/- mice; format: in vivo, mouse
Method: To analyze the effect of cigarette smoke, mice were exposed to passive smoke from 40 research cigarettes over a 2-hour period once (2 h) or twice (4 h) daily for 5 days/week for 20 weeks (˜90 mg/m^3 total solid particulates) using a mechanical smoking chamber (Teague Enterprises, Davis, CA). Control mice were exposed to ambient air. At the 18th week, peptide treatment at a dosage of 30 μg/20 g body weight was initiated and continued on a daily basis for the next 14 days. At the end of the experiment, the mice were euthanized and used for the experiments.
To analyze the effect of BLM, mice were exposed to BLM (40 μg/20 g body weight) once per two week for 16 weeks. Control mice were exposed to normal saline. At 14th week the peptide treatment at a dosage of 30 μg/20 g body weight was initiated and continued on a daily basis for the next 14 days. At the end of the experiment, the mice were euthanized and used for the experiments.
(§1) To test the effect of chronic TS exposure induced lung injury, these mice were exposed to passive TS from 40 research cigarettes over a 4 h period 5 days/week for 20 weeks (˜90 mg/m3 total solid particulates) using a mechanical smoking chamber (Teague Enterprises, Davis, CA) as described earlier. (Bhandary et al, 2015). Control mice were kept in ambient air. After sixteen weeks of daily passive TS exposure, mice with TS exposure injury were treated with CSP7 at a dosage of 1.5 mg/kg body weight daily 5 days/week for the next four weeks. These mice were continued with daily exposure of 4 h of TS during CSP7 treatment. At the end of the experiment (after 20 weeks of TS exposure), the mice were euthanized, and lungs were utilized for further analyses. To expand the local delivery options of CSP7 to directly treat the damaged lung by air-jet milling for dry powder inhalation (DPI). Mice exposed to TSE were treated with CSP7 using a rotating brush generator for 15 min daily for 7 days. Fourteen days later, BLM mice were subjected to daily inhalation of micronized CSP7 (0.05 mg/kg/d) DP through air-jet-milling for seven consecutive days using a rotating brush exposure system. The rotating brush exposure system gave a consistent minimal chamber concentration of 0.1 mg/L. In order to match dosing of DP inhalation, animal exposure times were adjusted to approximately 15 minutes and an estimated dose of 0.05 mg/kg/d or 1.00 microgram/lung was administered.
To evaluate the effect of CSP7 against chronic BLM-induced PF, the mice were exposed to BLM (40 μg/20 g body weight) once every two weeks for 16 weeks as described elsewhere. (Tiwari et al, 2016). Control mice were exposed to normal saline. Fourteen weeks later the CSP7 at a dosage of 1.5 mg/kg body weight was administered by IP injection and continued daily basis for the next two weeks as described elsewhere. (Tiwari et al, 2016; Shetty et al, 2008b). At the end of the experiment, the mice were euthanized and lung tissues and isolated A2Cs from the extracted lung tissues were used for further analysis.

A2Cs of IL-17A^−/− mice = test: Tobacco smoke exposure of IL-17A-/- mice; format: in vivo, mouse; conditions: 20 weeks TS; for IHC Trf1 or Trf2 antigen staining: IL-17A-deficient mice
Method: Mouse models and CSP7 treatment. All experiments involving mice were performed according to the approved protocols under the guidelines of Institutional Animal Care and Use Committee. Wild type (WT), and PAI-1^−/− and uPA^−/− mice of C57BL/6 background purchased from Jackson Laboratory (Bar Harbor, ME) were used for the experiments. IL-17A^−/− mice were obtained from University of Tokyo, Japan.
as §1

[1] = test system: AECs from human nL exposed to CSE; test: Normal lung AECs exposed to TS/CS extract in vitro for 48 h; format: cell-based
Method: Primary Airway Epithelial Cells (AECs); Normal, Human (ATCC® PCS-301-010™) and Primary Airway Epithelial Cells; COPD (ATCC® PCS-301-013™) were obtained from the ATCC and cultured in Airway Cell Basal Medium with glutamine, Extract P, HLL Supplement, and AEC Supplement. containing and 1% penicillin-streptomycin. The cells were maintained at 37° C. in a humidified atmosphere at 5% CO2. All media, supplements, and antibiotics were purchased from ATCC.
Research cigarettes 2R4F were purchased from the Tobacco Health Research University of Kentucky (Lexington, KY). TSE extracts were prepared by burning research cigarettes in a side arm flask and the smoke generated was bubbled into phosphate-buffered saline at room temperature through an attached peristaltic pump as described earlier (Bhandary et al PloS One 10: e0123187, 2015) Tiwari et al. Am J Physiol Lung Cell Mol Physiol. 310:L496-506, 2016. An absorbance of 1.0 at 230 nm is considered 100%. TSE extract was filter sterilized by passing it through a 0.2-μm filter.
Preparation of CSE for the treatment of AECs in vitro. Research cigarettes 2R4F were purchased from the Tobacco Health Research, University of Kentucky (Lexington, KY). CSE were prepared by burning research cigarettes in a sidearm flask and the smoke generated was bubbled into phosphate-buffered saline (PBS) at room temperature through an attached peristaltic pump as described earlier (Shetty et al, 2012). An absorbance of 1.0 at 230 nm is considered 100%. CSE was filter sterilized by passing it through a 0.2-μm filter.
CSP7 inhibits MH and cilia dysfunction in AECs exposed to CS extract (CSE). To further confirm the above findings, AECs isolated from human nL were exposed to CSE in vitro for 48 h and analyzed for MUC5AC, HDAC6, FOXA2, FOXA3, SPDEF, acetylated alpha-tubulin, p53, PAI-1 and LC3. […] The changes at protein level allied with corresponding changes at the mRNA levels (FIG. 36B). […] CSE induced co-localization of MUC5AC and HDAC6, and acetylated alpha-tubulin and LC3 were inhibited following treatment with CSP7.

[2] = test system: AT2 cells from COPD lung tissues; test: AT2 cells isolated from COPD lung tissues treated in vitro; format: cell-based, human
Method: Ex vivo studies using human lung tissues without patient identity was approved by the Institutional (UTHSCT) Review Board (IRB) through exempt protocol #12-003. nL and COPD tissues (n=4-5) were treated with or without CSP7 for 72 h ex vivo as described previously (Marudamuthu et al, 2019). Total protein and RNA extracted from the lung tissues were analyzed by Western blotting and qPCR for MUC5AC protein and mRNA, respectively. In separate experiments, AT2 cells isolated from nL and COPD lungs were treated with CSP7 or CP and immunoblotted for changes in senescence or apoptosis, p53, PAI-1 and SP-C expression. Similarly, nL and COPD tissues were treated with or without CSP7 or CP for 72 h ex vivo and AT2 cells isolated from these tissues were analyzed for senescence or apoptosis, p53, PAI-1 and SP-C.

[3] = AT2 cells from COPD tissue, in vitro

FTTFTVT (listed as Homo sapiens) [CSP7, heptapeptide fragment of the caveolin-1 scaffolding domain peptide CSP]
p53, ACp53, S15p53, apoptosis, senescence, PAI-1, SIAH1/2, TRF1, TRF2, PNUTS, TERT (Western blot) (A2Cs of uPA^−/− mice; uPA-/- mice, 8×BLM PF): minimal effect
telomerase enzyme activity (trapeze) (A2Cs of uPA^−/− mice; uPA-/- mice, 8×BLM PF): failed to restore
telomere length (qPCR) (A2Cs of uPA^−/− mice; uPA-/- mice, 8×BLM PF): failed to restore telomere length
telomere shortening (qPCR) (A2Cs of uPA^−/− mice; uPA-/- mice, 20 weeks TS): failed to respond to CSP7 treatment
telomere shortening (A2Cs of uPA^−/− mice; uPA-/- mice, 20 weeks smoke or repeated BLM, vs CP): did not show significant difference in telomere shortening
IHC of lung sections for TRF1 (A2Cs of uPA^−/− mice; uPA-/- mice, TS): minimal inhibition
TRF1, TRF2 and TERT expression in A2Cs (A2Cs of uPA^−/− mice; uPA-/- mice, TS): no significant change
p53 modification/induction, active caspase-3, β-galactosidase (Western blot) (A2Cs of uPA^−/− mice; uPA-/- mice, TS): failed to inhibit post-translational modification or induction of p53, active caspase-3 or β-galactosidase
telomerase activity (A2Cs of uPA^−/− mice; uPA-/- mice, TS): inability of CSP7 to reverse telomere shortening or improve telomerase activity
activation of p53, caspase-3, β-galactosidase (Western blot) (A2Cs of uPA^−/− mice; uPA-/- mice, smoke or BLM): failed to inhibit activation of p53, caspase-3 as well as β-galactosidase
telomerase enzyme activity (trapeze) (A2Cs of uPA^−/− mice; uPA-/- mice, smoke or BLM): did not restore the telomerase enzyme activity
TRF1, TRF2 and TERT expression (A2Cs of uPA^−/− mice; uPA-/- mice, smoke or BLM, CSP7 vs CP groups): no significant change
p53-induced PAI-1 expression or telomere dysfunction (A2Cs of uPA^−/− mice; uPA-deficient mice, TS- and 8×BLM-induced lung injury): failed to suppress p53-induced PAI-1 expression or telomere dysfunction
baseline telomerase activity (A2Cs of IL-17A^−/− mice; IL-17A-/- mice): limited effects on baseline telomerase activity
telomere shortening in A2Cs (A2Cs of IL-17A^−/− mice; IL-17A-/- mice): minimal effect
IHC Trf1 or Trf2 antigen staining (A2Cs of IL-17A^−/− mice): little change in Trf1 or Trf2 antigen staining
acetylated alpha-tubulin (immunofluorescence) ([1]; AECs + CSE): improved; also recorded: reversed with CSP7 treatment
TS-induced MUC5A gene expression ([1]; bronchial epithelial cells): inhibited TS-induced MUC5A gene expression
Caveolin1 expression ([1]; nL AECs + TSE): reversed by CSP7
MUC5AC, HDAC6, FOXA3, SPDEF and FOXA2 mRNA (qPCR) ([1]; nL AECs + TSE): reversed by CSP7 treatment
autophagy protein markers (Western blot) ([1]; nL AECs + TSE): reversed by CSP7
cilia length and number of ciliated cells ([1]; nL AECs + TSE/CSE): significantly improved; also recorded: significantly reversed
co-localization of MUC5AC/HDAC6 and Ac-Tubulin/LC3 ([1]; nL AECs + TSE/CSE): reversal of the co-localization; also recorded: inhibited
MUC5AC, HDAC6, FOXA3, SPDEF, CAV1, p53, PAI-1, LC3, FOXA2, Ac-Tub proteins (Western blot) ([1]; nL AECs + TSE/CSE 48 h): reversed with CSP7 treatment
SP-C level [2, 3]: restored baseline SP-C level
p53 and apoptosis [2, 3]: marked suppression of p53 and apoptosis
response of AT2 cells from nL tissues ([2]; subjects without COPD): failed to respond to CSP7 treatment

WGIDKAFFTTSTVTYKWFRY [CP, scrambled control peptide with the same amino acid composition as CSP, reference compound]
TRF1, TRF2 and TERT expression in A2Cs (A2Cs of uPA^−/− mice; uPA-/- mice, TS): no significant change
telomere shortening in A2Cs (A2Cs of IL-17A^−/− mice; IL-17A-/- mice): minimal effect
IHC Trf1 or Trf2 antigen staining (A2Cs of IL-17A^−/− mice): little change in Trf1 or Trf2 antigen staining
cilia length and number of ciliated cells ([1]; nL AECs + TSE/CSE): failed to respond
p53 and apoptosis [2, 3]: remained elevated
